Tested on: β-galactosidase in tumor sections
Assay: IHC analysis of β-galactosidase staining in intraliver tumor sections after i.v. dosing of Lipid-Based Particles
Type: in vivo, Scid female mice
Set-up: key: −: there was no staining, a small area of weak staining, or disperse strong single cell staining; ±: there was 5% of the section with weak staining or one patch of strong staining; +: there was 15% of the section with strong staining; ++: there was ˜50% of the section with strong straining; +++: there was 80% of the section with strong straining; ++++: the whole section had strong staining
Conditions: intraliver tumor model, Scid mice, tail vein (i.v) injection
Protocol: The animal studies were carried out in accordance with internal Institutional Animal Care and Use Committee (IACUC) guidelines at Abbott Laboratories. Scid female mice at 6 to 8 weeks of age were obtained from Charles River Laboratory and used for […] tumor models. Mouse livers were exposed by vertical incision on mouse abdomens and the tumor cells were directly injected into the livers. The incision was closed by suture and wound clips. All cell lines used for creating xenograft tumors were subjected to the IMPACT profile I test (18 agents) at the University of Missouri Research Animal Diagnostic and Investigative Laboratory, and all cell lines were found negative for the 18 infectious agents tested. Tumor cells were suspended in a 1:1 mixture of S-MEM (Invitrogen, Carlsbad, Calif.) and matrigel (BD Bioscience, San Jose, Calif.) and inoculated at 1×10E6 cells per animal. Treatments were started 3 4 weeks after tumor inoculation. Formulated or unformulated siRNAs were administrated via tail vein (i.v) injection. IHC was carried out as previously described [Li, L., et al., Evaluating hypoxia-inducible factor-1alpha as a cancer therapeutic target via inducible RNA interference in vivo. Cancer Res, 2005. 65(16): p. 7249-58]. Briefly, tumors were excised, cut into pieces of less than 3 mm in thickness and immediately fixed in buffered formalin solution with neutral pH (Sigma, St. Louis, Mo.). The formalin-fixed and paraffin-embedded tumor sections were then used for staining. The mouse anti-β-galactosidase mAb (Promega, Madison, Wis.) was used to detect β-galactosidase in tumor sections. […] IHC images were acquired using the Nikon TE2000 inverted microscope. The β-galactosidase staining was evaluated by 2 people independently based on the scoring system listed below. The average of the score was calculated for each tumor.

Measured: In vivo Response (β-galactosidase IHC staining score)

C[C@H]1c2cccc(O)c2C(=O)C2=C(O)[C@]3(O)C(=O)C(C(N)=O)=C(O)[C@@H](N(C)C)[C@@H]3[C@@H](O)[C@@H]21 [Doxycycline]
+++: column 1 (individual tumor, head not explained) | column 2 (individual tumor, head not explained) | column 3 (individual tumor, head not explained) | column 4 (individual tumor, head not explained) | column 5 (individual tumor, head not explained) | column 6 (individual tumor, head not explained)
